Experimental data published in patent publication US7041677B2, “Use of monochloroflosequinan in the treatment of sexual dysfunction” (R.T. Alamo Ventures I, LLC, priority 2002, dated 2006).

Target: T1, PDE6 (Bos taurus, UniProt P11541+P23439)
T1 construct: from tissue; host or cells: bovine retinal rod outer segments
T1 sequence (P11541 2-856 limits assumed): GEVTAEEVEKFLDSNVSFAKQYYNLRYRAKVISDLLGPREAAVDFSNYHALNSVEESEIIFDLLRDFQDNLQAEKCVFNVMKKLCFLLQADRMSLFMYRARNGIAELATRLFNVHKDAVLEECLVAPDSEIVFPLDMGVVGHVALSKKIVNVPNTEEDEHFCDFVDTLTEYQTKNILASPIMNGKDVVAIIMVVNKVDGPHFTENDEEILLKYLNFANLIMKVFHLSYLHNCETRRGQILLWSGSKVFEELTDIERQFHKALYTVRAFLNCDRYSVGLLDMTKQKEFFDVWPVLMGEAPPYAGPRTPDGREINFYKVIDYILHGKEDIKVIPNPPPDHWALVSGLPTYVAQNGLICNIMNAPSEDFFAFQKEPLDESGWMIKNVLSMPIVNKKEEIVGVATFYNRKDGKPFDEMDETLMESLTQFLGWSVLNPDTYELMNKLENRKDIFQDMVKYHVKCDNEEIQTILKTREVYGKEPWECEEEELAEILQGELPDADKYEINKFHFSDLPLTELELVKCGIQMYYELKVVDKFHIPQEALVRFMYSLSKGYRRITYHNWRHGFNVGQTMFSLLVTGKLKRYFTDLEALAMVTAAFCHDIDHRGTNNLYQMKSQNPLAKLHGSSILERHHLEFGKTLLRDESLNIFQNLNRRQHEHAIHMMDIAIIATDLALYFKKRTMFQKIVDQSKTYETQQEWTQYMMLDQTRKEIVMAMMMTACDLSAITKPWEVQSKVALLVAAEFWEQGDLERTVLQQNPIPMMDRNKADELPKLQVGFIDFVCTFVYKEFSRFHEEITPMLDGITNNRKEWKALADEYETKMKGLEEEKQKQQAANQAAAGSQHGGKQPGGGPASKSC
T1 sequence (P23439 2-850 limits assumed): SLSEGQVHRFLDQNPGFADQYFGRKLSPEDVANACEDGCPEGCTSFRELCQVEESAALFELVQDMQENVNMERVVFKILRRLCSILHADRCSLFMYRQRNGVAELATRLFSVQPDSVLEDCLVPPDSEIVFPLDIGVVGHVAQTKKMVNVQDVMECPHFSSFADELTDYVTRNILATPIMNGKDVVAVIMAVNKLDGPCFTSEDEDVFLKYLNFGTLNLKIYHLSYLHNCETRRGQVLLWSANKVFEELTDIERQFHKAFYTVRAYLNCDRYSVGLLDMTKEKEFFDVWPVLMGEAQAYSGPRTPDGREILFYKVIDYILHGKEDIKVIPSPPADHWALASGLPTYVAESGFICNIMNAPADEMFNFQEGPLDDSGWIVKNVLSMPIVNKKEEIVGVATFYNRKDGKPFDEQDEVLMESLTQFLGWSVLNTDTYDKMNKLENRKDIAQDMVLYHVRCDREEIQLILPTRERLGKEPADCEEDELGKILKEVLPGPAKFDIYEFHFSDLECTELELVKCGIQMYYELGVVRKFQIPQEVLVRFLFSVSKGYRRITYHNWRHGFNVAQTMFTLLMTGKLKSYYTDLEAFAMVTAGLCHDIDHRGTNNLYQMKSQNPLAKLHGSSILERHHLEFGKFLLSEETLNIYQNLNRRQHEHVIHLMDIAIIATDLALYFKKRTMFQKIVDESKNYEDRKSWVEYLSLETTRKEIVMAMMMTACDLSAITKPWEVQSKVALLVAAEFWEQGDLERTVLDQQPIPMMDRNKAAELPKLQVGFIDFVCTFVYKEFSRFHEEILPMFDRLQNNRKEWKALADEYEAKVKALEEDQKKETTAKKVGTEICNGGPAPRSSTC
Experiment: PDE6 enzyme inhibition assay
Format: biochemical, bovine
Settings: 200 μM, 25° C., 1% DMSO vehicle

SMILES | inhibition of PDE6
Cn1cc([S@+]([O-])CCl)c(=O)c2ccc(F)cc21 (single isomer, unassigned) [(+)-enantiomer of monochloroflosequinan] | greater than 50%
Cn1cc([S@@+]([O-])CCl)c(=O)c2ccc(F)cc21 (single isomer, unassigned) [(−)-enantiomer of monochloroflosequinan] | greater than 50%
